# Assay results: patent publication US7485642B2, “Method for treating septic shock” (Orion Corporation, priority 2000, dated 2009)
# System: porcine model of endotoxin shock
# Assay: porcine model of endotoxin shock
# Type: in vivo, landrace pigs
# Method: 20 kg landrace pigs were anesthetized and catheterized. After baseline measurements 8 pigs received 200 μg/kg levosimendan as a 10 minute bolus followed by an infusion of 200 μg/kg/hour. 9 animals served as controls.
# In the second phase of the experiment the animals were given an infusion of endotoxin (from E. Coli bacteria) 30 minutes after the start of the bolus dose of levosimendan. The endotoxin infusion was maintained for 3 hours and the levosimendan infusion was maintained throughout the experiment until 5 hours after onset of endoxemia. Comparison between the two groups was made with ANOVA.
# The changes in the cardiac index, splanchnic (portal) blood flow index, portal venous blood lactate and pulmonary vascular resistance are shown in FIGS. 1-4. In the Figures, (−0.5 h) means the start of levosimendan bolus and (0 h) the start of endotoxin infusion.
# [1] = porcine model of endotoxin shock, 200 μg/kg 10 minute bolus followed by infusion of 200 μg/kg/hour, E. Coli endotoxin infusion 3 hours
smiles,measurement,setting,value
"CC1CC(=O)NN=C1c1ccc(NN=C(C#N)C#N)cc1 (single isomer, unassigned; (-)) [levosimendan, (−)-[[4-(1,4,5,6-tetrahydro-4-methyl-6-oxo-3-pyridazinyl)phenyl]hydrazono]propanedinitrile]",survival,"8 levosimendan treated pigs, until 5 hours after onset of endotoxemia",All levosimendan treated animals survived
same,endotoxin-induced decreases in cardiac output,[1],counteracts
same,endotoxin-induced splanchnic hyperperfusion,[1],counteracts endotoxin-induced splanchnic hyperperfusion
same,"endotoxin-induced circulatory disorders (cardiac index, portal blood flow index, portal venous blood lactate, pulmonary vascular resistance; FIGS. 1-4)","vs control, ANOVA, until 5 hours after onset of endotoxemia",can significantly counteract endotoxin-induced circulatory disorders
